In patent US20240199597A1, “SMALL MOLECULES FOR THE TREATMENT OF KINASE-RELATED DISEASES” (Athos Therapeutics, Inc., priority 2021, published 2024):

How the values were obtained:
[1] = target: T1, CLK4 (Homo sapiens, UniProt Q9HAZ1); test: Kinase inhibition assay (Eurofins DiscoverX KinaseProfiler / KdElect), CLK4; format: biochemical
T1 construct: purchased Eurofins DiscoverX (contract service)
Protocol: (§1) The activity of Compounds 1, 3, 4, 6, 7, 8, 9, 10 and 13 in inhibiting CLK1, CLK4, PLK4, and FLT3 kinases was determined. Stock solutions of the compounds being evaluated were prepared. The IC50 values were determined by the Eurofins DiscoverX services using either the KinaseProfiler or the KdElect kinase activity detection assays.

[2] = target: T2, FLT3 (Homo sapiens, UniProt P36888); test: Kinase assay (Eurofins DiscoverX KinaseProfiler / KdElect), FLT3; format: binding; details: read-out: FLT3 (Kd50 nM)
T2 construct: purchased Eurofins DiscoverX (contract service)
T2 sequence (P36888 27-993): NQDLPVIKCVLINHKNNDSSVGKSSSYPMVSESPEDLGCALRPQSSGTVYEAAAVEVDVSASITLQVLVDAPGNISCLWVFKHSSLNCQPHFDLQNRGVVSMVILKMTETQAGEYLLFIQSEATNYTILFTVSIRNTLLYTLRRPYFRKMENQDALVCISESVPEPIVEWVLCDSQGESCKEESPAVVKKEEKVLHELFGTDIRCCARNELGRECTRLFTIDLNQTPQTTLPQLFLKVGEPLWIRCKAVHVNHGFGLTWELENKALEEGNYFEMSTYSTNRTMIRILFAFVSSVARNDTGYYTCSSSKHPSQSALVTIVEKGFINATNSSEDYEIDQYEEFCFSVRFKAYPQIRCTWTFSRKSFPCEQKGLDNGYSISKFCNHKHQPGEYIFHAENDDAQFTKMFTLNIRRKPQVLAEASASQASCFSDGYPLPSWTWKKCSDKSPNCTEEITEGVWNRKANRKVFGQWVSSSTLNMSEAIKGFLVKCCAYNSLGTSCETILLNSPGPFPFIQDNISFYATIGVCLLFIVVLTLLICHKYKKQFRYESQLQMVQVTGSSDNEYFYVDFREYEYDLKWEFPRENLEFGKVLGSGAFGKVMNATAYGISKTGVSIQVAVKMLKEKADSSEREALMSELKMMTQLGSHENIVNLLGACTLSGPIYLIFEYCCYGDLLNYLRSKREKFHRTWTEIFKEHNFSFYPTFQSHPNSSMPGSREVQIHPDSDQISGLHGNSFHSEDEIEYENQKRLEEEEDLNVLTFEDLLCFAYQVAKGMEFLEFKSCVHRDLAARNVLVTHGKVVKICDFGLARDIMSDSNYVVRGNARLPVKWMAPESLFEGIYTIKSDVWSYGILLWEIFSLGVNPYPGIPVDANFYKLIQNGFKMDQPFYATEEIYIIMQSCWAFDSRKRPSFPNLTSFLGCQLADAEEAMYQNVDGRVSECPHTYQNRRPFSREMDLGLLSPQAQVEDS
Protocol: Stock solutions of the compounds being evaluated were prepared. The IC50 values were determined by the Eurofins DiscoverX services using either the KinaseProfiler or the KdElect kinase activity detection assays.

[3] = test system: Kasumi-3; test: Cancer cytotoxicity assay (Real-Time-Glo cell viability), Kasumi-3; format: cell-based; details: leukemia cell, 72 hr
Protocol: (§2) The cytotoxicity of Compounds 1, 3, 4, 6, 7, 8, 9, 10, 12 and 13 against cancer cell lines was determined. To determine the optimal plating density for cell viability assays, for each cell line, cells were counted and diluted to final densities of 2.5, 5, 10 and 20 thousand per 100 μL of their respective growth media per well in 96 well plates. The Promega Real-Time-Glo cell viability kit was used to determine the optimal concentration for cell plating so that each cell line would be within the linear part of its growth curve after 72 hrs in culture. For the determination of test compound IC50s, different cancer cell lines were plated in 96 well plates in the pre-determined optimal density for each cell line. Test compounds were then added at different concentrations for the creation of six-point curve and cell density was determined using the Promega Real-Time-Glo cell viability kit after 24, 48, and 72 hrs in culture.

[4] = test system: OV-90; test: Cancer cytotoxicity assay (Real-Time-Glo cell viability), OV-90; format: cell-based; details: Homo sapiens, ovarian cancer cell line, 72 hr
Protocol: as §2

[5] = test system: HT-29; test: Cancer cytotoxicity assay (Real-Time-Glo cell viability), HT-29; format: cell-based; details: Homo sapiens, colorectal cancer cell line, 72 hr
Protocol: as §2

[6] = target: T3, CLK1 (Homo sapiens, UniProt P49759); test: Kinase inhibition assay (Eurofins DiscoverX KinaseProfiler / KdElect), CLK1; format: biochemical
T3 construct: purchased Eurofins DiscoverX (contract service)
T3 sequence (P49759 whole entry): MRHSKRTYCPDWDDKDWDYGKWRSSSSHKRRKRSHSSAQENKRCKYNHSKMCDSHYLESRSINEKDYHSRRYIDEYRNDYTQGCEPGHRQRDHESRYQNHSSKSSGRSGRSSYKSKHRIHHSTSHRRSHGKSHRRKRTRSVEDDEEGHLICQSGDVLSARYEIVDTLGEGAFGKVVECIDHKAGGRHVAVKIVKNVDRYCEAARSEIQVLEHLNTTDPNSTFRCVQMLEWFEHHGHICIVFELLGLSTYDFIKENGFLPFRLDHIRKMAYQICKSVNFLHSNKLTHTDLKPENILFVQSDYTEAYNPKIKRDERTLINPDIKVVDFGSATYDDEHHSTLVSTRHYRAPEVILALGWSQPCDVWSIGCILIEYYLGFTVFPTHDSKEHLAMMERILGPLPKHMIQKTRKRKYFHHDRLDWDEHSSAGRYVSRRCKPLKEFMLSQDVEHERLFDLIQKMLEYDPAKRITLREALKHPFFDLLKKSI
Protocol: as §1

[7] = target: T4, PLK4 (Homo sapiens, UniProt O00444); test: Kinase inhibition assay (Eurofins DiscoverX KinaseProfiler / KdElect), PLK4; format: biochemical
T4 construct: purchased Eurofins DiscoverX (contract service)
T4 sequence (O00444 1-970): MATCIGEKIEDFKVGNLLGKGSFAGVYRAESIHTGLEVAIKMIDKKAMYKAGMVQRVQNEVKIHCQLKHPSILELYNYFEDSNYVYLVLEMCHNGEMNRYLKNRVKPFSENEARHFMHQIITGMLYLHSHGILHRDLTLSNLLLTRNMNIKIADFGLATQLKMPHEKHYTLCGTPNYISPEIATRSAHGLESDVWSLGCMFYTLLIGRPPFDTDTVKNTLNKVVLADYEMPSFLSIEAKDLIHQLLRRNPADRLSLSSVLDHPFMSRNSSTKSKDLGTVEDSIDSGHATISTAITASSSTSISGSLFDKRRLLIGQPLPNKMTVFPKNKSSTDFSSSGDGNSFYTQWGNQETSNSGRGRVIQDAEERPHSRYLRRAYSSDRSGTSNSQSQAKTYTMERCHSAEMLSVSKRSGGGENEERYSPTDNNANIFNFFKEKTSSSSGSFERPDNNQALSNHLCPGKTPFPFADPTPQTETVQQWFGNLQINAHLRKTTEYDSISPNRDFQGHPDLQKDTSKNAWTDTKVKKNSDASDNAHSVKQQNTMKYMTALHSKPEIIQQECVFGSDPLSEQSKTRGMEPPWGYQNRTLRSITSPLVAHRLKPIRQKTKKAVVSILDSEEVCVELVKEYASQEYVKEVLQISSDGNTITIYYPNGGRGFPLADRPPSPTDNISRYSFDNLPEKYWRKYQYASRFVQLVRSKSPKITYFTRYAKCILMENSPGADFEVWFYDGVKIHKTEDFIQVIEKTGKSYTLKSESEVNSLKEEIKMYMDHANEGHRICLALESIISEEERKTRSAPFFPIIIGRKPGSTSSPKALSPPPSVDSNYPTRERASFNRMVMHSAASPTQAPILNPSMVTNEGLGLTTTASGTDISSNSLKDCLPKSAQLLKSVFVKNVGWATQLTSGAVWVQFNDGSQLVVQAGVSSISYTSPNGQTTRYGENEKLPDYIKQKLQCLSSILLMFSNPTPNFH
Protocol: as §1

[8] = test system: A-498; test: Cancer cytotoxicity assay (Real-Time-Glo cell viability), A-498; format: cell-based; details: Homo sapiens, A498; kidney cancer, 72 hr
Protocol: as §2

[9] = test system: HCT-116; test: Cancer cytotoxicity assay (Real-Time-Glo cell viability), HCT-116; format: cell-based; details: Homo sapiens, colorectal cancer cell line, 72 hr
Protocol: as §2

[10] = test system: 786-O; test: Cancer cytotoxicity assay (Real-Time-Glo cell viability), 786-O; format: cell-based; details: Homo sapiens, 786-0; kidney cancer, 72 hr
Protocol: as §2

[11] = test system: SKOV-3; test: Cancer cytotoxicity assay (Real-Time-Glo cell viability), SKOV-3; format: cell-based; details: Homo sapiens, SK-OV-3; ovarian cancer cell line, 72 hr
Protocol: as §2

[12] = test system: Kasumi-1; test: Cancer cytotoxicity assay (Real-Time-Glo cell viability), Kasumi-1; format: cell-based; details: Homo sapiens, leukemia cell, 72 hr
Protocol: as §2

[13] = test system: MV4-11; test: Cancer cytotoxicity assay (Real-Time-Glo cell viability), MV4-11; format: cell-based; details: Homo sapiens, leukemia cell, 72 hr
Protocol: as §2

T1 sequence (Q9HAZ1 whole entry): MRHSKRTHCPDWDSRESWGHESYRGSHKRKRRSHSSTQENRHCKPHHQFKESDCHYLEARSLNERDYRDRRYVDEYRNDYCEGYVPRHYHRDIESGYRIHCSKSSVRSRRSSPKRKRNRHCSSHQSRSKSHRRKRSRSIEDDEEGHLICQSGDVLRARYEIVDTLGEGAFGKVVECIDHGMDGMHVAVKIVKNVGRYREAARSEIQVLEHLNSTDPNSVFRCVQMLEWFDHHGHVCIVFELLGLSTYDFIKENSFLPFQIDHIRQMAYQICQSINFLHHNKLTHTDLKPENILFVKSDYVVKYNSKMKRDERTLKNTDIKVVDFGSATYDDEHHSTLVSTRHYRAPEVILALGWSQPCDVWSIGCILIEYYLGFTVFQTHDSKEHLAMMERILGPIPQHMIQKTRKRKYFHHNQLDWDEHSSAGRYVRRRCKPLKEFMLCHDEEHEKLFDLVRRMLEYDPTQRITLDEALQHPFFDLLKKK

Compound	IC50 [1]	Kd [2]	IC50 [3]	IC50 [4]	IC50 [5]	IC50 [6]	IC50 [7]	IC50 [8]	IC50 [9]	IC50 [10]	IC50 [11]	IC50 [12]	IC50 [13]
COc1cc2c(Nc3cc(C)[nH]n3)nc(N3CCC(F)(F)CC3)nc2cc1OCCCN1CCCC1 [Compound 3, 2-(4,4-difluoropiperidin-1-yl)-6-methoxy-N-(5-methyl-1H-pyrazol-3-yl)-7-(3-(pyrrolidin-1-yl)propoxy)quinazolin-4-amine]	< 1000 nM	1 to 5 µM	5000 to 10000 nM	1000 to 5000 nM	5000 to 10000 nM	< 1000 nM	< 1000 nM	5000 to 10000 nM	1000 to 5000 nM	5000 to 10000 nM	1000 to 5000 nM	> 10000 nM	1000 to 5000 nM
COc1cc2c(Nc3ncc(C)s3)nc(N3CCC(F)(F)CC3)nc2cc1OCCCN1CCCC1 [Compound 9, N-(2-(4,4-difluoropiperidin-1-yl)-6-methoxy-7-(3-(pyrrolidin-1-yl)propoxy)quinazolin-4-yl)-5-methylthiazol-2-amine]	< 1000 nM	> 10 µM	1000 to 5000 nM	5000 to 10000 nM	> 10000 nM	< 1000 nM	> 10000 nM	1000 to 5000 nM	5000 to 10000 nM	1000 to 5000 nM	1000 to 5000 nM	1000 to 5000 nM	1000 to 5000 nM
COc1cc2c(Nc3cc(C(C)C)[nH]n3)nc(N3CCC(F)(F)CC3)nc2cc1OCCCN1CCCC1 [Compound 13, 2-(4,4-difluoropiperidin-1-yl)-N-(5-isopropyl-1H-pyrazol-3-yl)-6-methoxy-7-(3-(pyrrolidin-1-yl)propoxy)quinazolin-4-amine]	< 1000 nM	1 to 5 µM	1000 to 5000 nM	1000 to 5000 nM	1000 to 5000 nM	< 1000 nM	> 10000 nM	1000 to 5000 nM	1000 to 5000 nM	1000 to 5000 nM	1000 to 5000 nM	1000 to 5000 nM	< 1000 nM
COc1cc2c(Nc3cc(C)[nH]n3)nc(N3CCC3)nc2cc1OCCCN1CCCC1 [Compound 4, 2-(Azetidin-1-yl)-6-methoxy-N-(5-methyl-1H-pyrazol-3-yl)-7-(3-(pyrrolidin-1-yl)propoxy)quinazolin-4-amine]	5000 to 10000 nM	5 to 10 µM	> 10000 nM	> 10000 nM	> 10000 nM	1000 to 5000 nM	> 10000 nM	> 10000 nM	1000 to 5000 nM	> 10000 nM	> 10000 nM	> 10000 nM	5000 to 10000 nM
COc1cc2c(Nc3nnc(C)s3)nc(N3CCC(F)(F)CC3)nc2cc1OCCCN1CCCC1 [Compound 12, N-(2-(4,4-difluoropiperidin-1-yl)-6-methoxy-7-(3-(pyrrolidin-1-yl)propoxy)quinazolin-4-yl)-5-methyl-1,3,4-thiadiazol-2-amine]			1000 to 5000 nM	1000 to 5000 nM	1000 to 5000 nM			1000 to 5000 nM	1000 to 5000 nM	5000 to 10000 nM	1000 to 5000 nM	1000 to 5000 nM	1000 to 5000 nM
COc1cc2c(Nc3cc(C4CCC4)[nH]n3)nc(N3CCC(F)(F)CC3)nc2cc1OCCCN1CCCC1 [Compound 10, N-(5-cyclobutyl-1H-pyrazol-3-yl)-2-(4,4-difluoropiperidin-1-yl)-6-methoxy-7-(3-(pyrrolidin-1-yl)propoxy)quinazolin-4-amine]	< 1000 nM		< 1000 nM	1000 to 5000 nM	1000 to 5000 nM	< 1000 nM	1000 to 5000 nM	1000 to 5000 nM	1000 to 5000 nM	1000 to 5000 nM	1000 to 5000 nM	< 1000 nM	< 1000 nM
COc1cc2c(Nc3cc(C4CC4)[nH]n3)nc(N3CCC(F)(F)CC3)nc2cc1OCCCN1CCCC1 [Compound 6, N-(5-cyclopropyl-1H-pyrazol-3-yl)-2-(4,4-difluoropiperidin-1-yl)-6-methoxy-7-(3-(pyrrolidin-1-yl)propoxy)quinazolin-4-amine]	< 1000 nM		1000 to 5000 nM	1000 to 5000 nM	1000 to 5000 nM	< 1000 nM	< 1000 nM	1000 to 5000 nM	1000 to 5000 nM	1000 to 5000 nM	1000 to 5000 nM	1000 to 5000 nM	< 1000 nM
